Molecular target: Dipeptidyl peptidase 4 (Homo sapiens, UniProt P27487)
Test: Inhibitory activity against Dipeptidylpeptidase IV (DPP IV) in human acute lymphoblastic leukemia MOLT-4 cell line

Dipeptidyl peptidase 4, sequence (P27487 whole entry): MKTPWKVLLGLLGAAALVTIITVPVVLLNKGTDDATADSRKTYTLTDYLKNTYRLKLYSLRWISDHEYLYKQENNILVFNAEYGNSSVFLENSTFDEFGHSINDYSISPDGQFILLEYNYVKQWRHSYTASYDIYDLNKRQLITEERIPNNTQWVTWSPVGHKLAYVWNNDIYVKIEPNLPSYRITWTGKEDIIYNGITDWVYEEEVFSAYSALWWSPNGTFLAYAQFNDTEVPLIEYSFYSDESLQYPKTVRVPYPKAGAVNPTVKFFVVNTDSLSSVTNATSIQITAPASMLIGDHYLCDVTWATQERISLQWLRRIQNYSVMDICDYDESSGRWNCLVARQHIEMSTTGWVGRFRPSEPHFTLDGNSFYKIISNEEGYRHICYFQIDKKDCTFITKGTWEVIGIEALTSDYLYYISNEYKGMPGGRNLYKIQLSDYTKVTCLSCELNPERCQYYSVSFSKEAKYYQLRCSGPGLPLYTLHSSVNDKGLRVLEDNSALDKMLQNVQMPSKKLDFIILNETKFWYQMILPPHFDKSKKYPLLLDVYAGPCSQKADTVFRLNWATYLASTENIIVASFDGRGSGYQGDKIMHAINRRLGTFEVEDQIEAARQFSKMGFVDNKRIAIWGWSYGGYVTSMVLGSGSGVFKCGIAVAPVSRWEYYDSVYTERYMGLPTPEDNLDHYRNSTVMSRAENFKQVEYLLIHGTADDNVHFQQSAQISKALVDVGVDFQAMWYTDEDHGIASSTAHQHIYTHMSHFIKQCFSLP

Compound: CC(C)C[C@H](NC(=O)[C@@H](O)[C@H](N)Cc1ccccc1)C(=O)O
- IC50: > 324 µM

Reference: BindingDB's records for doi:10.1016/s0960-894x(99)00034-7 (University of Tokyo, 1999)
